As a reminder, the IC50 is the concentration at which inhibition is half-maximal.

Experiment [1] has as its target T1, Recombinant ROCK2 (amino acids 5-554) (Homo sapiens, UniProt O75116).
T1 construct: ROCK2 (amino acids 5-554); by word order, ROCK2 from SignalChem
In words: ROCK inhibition assay, LANCE Ultra TR-FRET kinase assay (ROCK2). Type of experiment: biochemical. The settings on record: 4 μM ATP, 50 nM ULight-CREBtide substrate. In short, it runs like this: (§1)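 Reaction buffer 50 mM HEPES pH 7.5, 10 mM MgCl2, 1 mM EGTA, 2 mM DTT; kinase, ULight-CREBtide (50 nM) and ATP (ROCK1 1 μM, ROCK2 4 μM) react 1 h at room temperature. Phospho-Ser133 detected by europium antibody after 10 mM EDTA stop, TR-FRET ex 320 nm; IC50 calculated.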
(In general: Time-resolved FRET reads energy transfer from a long-lived donor to a nearby acceptor.)

Experiment [2] deals with T2, Recombinant ROCK1 (amino acids 1-477) (Homo sapiens, UniProt Q13464).
T2 construct: Recombinant ROCK1 (amino acids 1-477); by word order, ROCK1 from Carna Biosciences
In words: ROCK inhibition assay, LANCE Ultra TR-FRET kinase assay (ROCK1). Type of experiment: biochemical. The settings on record: 1 μM ATP, 50 nM ULight-CREBtide substrate. The essentials:
as §1

T1 sequence (O75116 5-554): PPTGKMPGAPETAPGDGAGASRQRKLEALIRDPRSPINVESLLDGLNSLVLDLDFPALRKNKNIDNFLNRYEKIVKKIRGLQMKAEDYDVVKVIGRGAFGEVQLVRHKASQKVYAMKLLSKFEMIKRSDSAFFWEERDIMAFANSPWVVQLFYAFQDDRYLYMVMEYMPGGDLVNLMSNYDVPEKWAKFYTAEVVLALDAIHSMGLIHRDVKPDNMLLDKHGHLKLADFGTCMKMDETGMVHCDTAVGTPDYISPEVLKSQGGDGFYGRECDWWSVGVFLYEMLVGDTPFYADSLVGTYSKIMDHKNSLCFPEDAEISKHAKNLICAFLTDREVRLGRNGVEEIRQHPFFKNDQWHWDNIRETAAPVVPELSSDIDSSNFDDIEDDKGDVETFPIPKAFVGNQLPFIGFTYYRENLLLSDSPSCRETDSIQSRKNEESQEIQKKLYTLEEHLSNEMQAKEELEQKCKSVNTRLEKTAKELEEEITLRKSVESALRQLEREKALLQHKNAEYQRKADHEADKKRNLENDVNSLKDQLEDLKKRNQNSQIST
T2 sequence (Q13464 1-477): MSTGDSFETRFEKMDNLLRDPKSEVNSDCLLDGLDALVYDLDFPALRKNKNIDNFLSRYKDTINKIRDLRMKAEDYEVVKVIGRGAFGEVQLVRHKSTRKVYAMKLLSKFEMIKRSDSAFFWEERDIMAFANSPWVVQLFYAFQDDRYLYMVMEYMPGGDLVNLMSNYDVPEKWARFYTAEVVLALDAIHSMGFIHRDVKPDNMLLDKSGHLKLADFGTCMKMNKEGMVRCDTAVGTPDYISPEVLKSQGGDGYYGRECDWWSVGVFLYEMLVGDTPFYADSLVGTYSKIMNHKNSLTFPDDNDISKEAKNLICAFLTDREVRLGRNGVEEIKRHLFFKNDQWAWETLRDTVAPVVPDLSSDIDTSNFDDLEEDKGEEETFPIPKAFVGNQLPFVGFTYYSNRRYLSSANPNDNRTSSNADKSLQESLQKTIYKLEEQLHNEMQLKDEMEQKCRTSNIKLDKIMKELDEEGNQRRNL

For `Cc1nocc1-c1ccc2c(=O)n(Cc3cccc(C(=O)NCC4CCNCC4)c3)cnc2c1` [Compound 418], the IC50 in experiment [1] and in experiment [2] was less than 10 nM throughout.
As for `Cc1nocc1-c1ccc2c(=O)n(Cc3cccc(C(=O)NCCc4cccnc4)c3)cnc2c1` [Compound 419], the IC50 in experiment [1] and in experiment [2] was less than 10 nM each time.
As for `Cc1nocc1-c1ccc2c(=O)n(Cc3cccc(C(=O)NCCN4CCOCC4)c3)cnc2c1` [Compound 420], the half-maximal inhibitory concentration (IC50) was less than 10 nM in experiment [1] and 11 to 100 nM in experiment [2].
Consider `Cc1nocc1-c1ccc2c(=O)n(Cc3cccc(C(=O)NCC(F)(F)F)c3)cnc2c1` [Compound 421], for which the results for the IC50 in experiment [1] and in experiment [2] were less than 10 nM and 11 to 100 nM, respectively.
For `CNC(=O)c1cc(F)cc(Cn2cnc3cc(-c4conc4C)ccc3c2=O)c1` [Compound 422], the IC50 is less than 10 nM in experiment [1] and 11 to 100 nM in experiment [2].
In the same order, the values of `[2H]C([2H])([2H])NC(=O)c1cc(F)cc(Cn2cnc3cc(-c4conc4C)ccc3c2=O)c1` [Compound 423] are less than 10 nM and 11 to 100 nM.
For `[2H]C([2H])([2H])NC(=O)c1cccc(Cn2cnc3cc(-c4ccnn4C)ccc3c2=O)c1` [Compound 425], in that order: less than 10 nM and 11 to 100 nM.
For `CNC(=O)c1cccc(C(C)n2cnc3cc(-c4ccnn4C)ccc3c2=O)c1` (stereo not shown) [Compound 426], in that order: less than 10 nM and 11 to 100 nM.
Take `Cn1nccc1-c1ccc2c(=O)n(Cc3cccc(C(=O)N[C@H]4C[C@@H](O)C4)c3)cnc2c1` [Compound 427]: the IC50 in experiment [1] was less than 10 nM; in experiment [2], 11 to 100 nM.
In the same order, the values of `Cn1nccc1-c1ccc2c(=O)n(Cc3cccc(C(=O)N[C@H]4C[C@H](O)C4)c3)cnc2c1` [Compound 428] are less than 10 nM and 11 to 100 nM.
In the case of `Cn1nccc1-c1ccc2c(=O)n(Cc3cccc(C(=O)N[C@H]4CC[C@@H](O)CC4)c3)cnc2c1` [Compound 429], the 50% inhibitory concentration (IC50) was less than 10 nM in experiment [1] and 11 to 100 nM in experiment [2].
For `CN1CCC(NC(=O)c2cccc(Cn3cnc4cc(-c5ccnn5C)ccc4c3=O)c2)CC1` [Compound 430], in that order: less than 10 nM and 11 to 100 nM.
As for `Cn1nccc1-c1ccc2c(=O)n(Cc3cccc(C(=O)NCC4COC4)c3)cnc2c1` [Compound 431], the IC50 in experiment [1] lay within 10 to 100 nM; in experiment [2], 11 to 100 nM.
For `Cn1nccc1-c1ccc2c(=O)n(Cc3cccc(C(=O)NCCO)c3)cnc2c1` [Compound 432], in that order: 10 to 100 nM and 101 to 500 nM.
In the same order, the values of `CNC(=O)c1cccc(Cn2cnc3cc(-c4ccnc(N)c4)ccc3c2=O)c1` [Compound 433] are 10 to 100 nM and 101 to 500 nM.
Consider `Nc1cc(-c2ccc3c(=O)n(Cc4cccc(C(=O)NC5COC5)c4)cnc3c2)ccn1` [Compound 434], for which the IC50 fell in the range of 10 to 100 nM in experiment [1] and 101 to 500 nM in experiment [2].
Consider `Nc1cc(-c2ccc3c(=O)n(Cc4cccc(C(=O)NC5CCOCC5)c4)cnc3c2)ccn1` [Compound 435], for which the values for the IC50 in experiment [1] and in experiment [2] were 10 to 100 nM and 101 to 500 nM, respectively.
On to `CN1CCC(NC(=O)c2cccc(Cn3cnc4cc(-c5ccnc(N)c5)ccc4c3=O)c2)CC1` [Compound 436], for which the IC50 in experiment [1] is less than 10 nM; in experiment [2] it was 11 to 100 nM.
In the same order, the values of `Nc1cc(-c2ccc3c(=O)n(Cc4cccc(C(=O)NCC5CCOCC5)c4)cnc3c2)ccn1` [Compound 438] are 10 to 100 nM and 11 to 100 nM.
In the same order, the values of `CNC(=O)c1cccc(Cn2cnc3cc(-c4cnnn4C)ccc3c2=O)c1` [Compound 439] are more than 500 nM and more than 501 nM.
With `CNC(=O)c1cccc([C@@H](C)n2cnc3cc(-c4cn[nH]c4C)ccc3c2=O)c1` [Compound 441], the half-maximal inhibitory concentration (IC50) in experiment [1] is less than 10 nM; in experiment [2] it was 11 to 100 nM.
For `C[C@H](c1cccc(C(=O)N(C)C)c1)n1cnc2cc(-c3cn[nH]c3C(F)(F)F)ccc2c1=O` [Compound 442], in that order: more than 500 nM and more than 501 nM.
`[2H]C([2H])([2H])NC(=O)c1cccc([C@@H](C)n2cnc3cc(-c4cn[nH]c4C(F)(F)F)ccc3c2=O)c1` [Compound 443]: the IC50 was less than 10 nM in experiment [1] and 11 to 100 nM in experiment [2].
As for `CNC(=O)c1cccc([C@H](C)n2cnc3cc(-c4cn[nH]c4C(F)(F)F)ccc3c2=O)c1` [Compound 444], the IC50 was less than 10 nM in experiment [1] and 11 to 100 nM in experiment [2].
For `CC(C)NC(=O)c1cccc([C@@H](C)n2cnc3cc(-c4cn[nH]c4C(F)(F)F)ccc3c2=O)c1` [Compound 445], in that order: less than 10 nM and 11 to 100 nM.
As to `C[C@H](c1cccc(C(=O)N(C)Cc2ccncc2)c1)n1cnc2cc(-c3cn[nH]c3C(F)(F)F)ccc2c1=O` [Compound 446], the IC50 is more than 500 nM in experiment [1] and more than 501 nM in experiment [2].
For the compound `C[C@H](c1cccc(C(=O)NCc2ccncc2)c1)n1cnc2cc(-c3cn[nH]c3C(F)(F)F)ccc2c1=O` [Compound 447], the IC50 in experiment [1] and in experiment [2] was less than 10 nM throughout.
On to `C[C@H](c1cccc(C(=O)NC2CCOCC2)c1)n1cnc2cc(-c3cn[nH]c3C(F)(F)F)ccc2c1=O` [Compound 449], for which the IC50 is less than 10 nM in experiment [1] and 11 to 100 nM in experiment [2].
For `C[C@H](c1cccc(C(=O)NC2CCN(C)CC2)c1)n1cnc2cc(-c3cn[nH]c3C(F)(F)F)ccc2c1=O` [Compound 450], in that order: less than 10 nM and less than 10 nM.
With `C[C@H](c1cccc(C(=O)NCC2CCOCC2)c1)n1cnc2cc(-c3cn[nH]c3C(F)(F)F)ccc2c1=O` [Compound 451], the IC50 in experiment [1] was less than 10 nM; in experiment [2], 11 to 100 nM.
As to `C[C@H](c1cccc(C(=O)NCC2COC2)c1)n1cnc2cc(-c3cn[nH]c3C(F)(F)F)ccc2c1=O` [Compound 452], the figures for the IC50 in experiment [1] and in experiment [2] were less than 10 nM and 11 to 100 nM, respectively.
In the same order, the values of `C[C@H](c1cccc(C(=O)NCCO)c1)n1cnc2cc(-c3cn[nH]c3C(F)(F)F)ccc2c1=O` [Compound 453] are 10 to 100 nM and 11 to 100 nM.
Take `CNC(=O)c1cc(F)cc([C@@H](C)n2cnc3cc(-c4cn[nH]c4C(F)(F)F)ccc3c2=O)c1` [Compound 454]: the values for the IC50 in experiment [1] and in experiment [2] were less than 10 nM and 11 to 100 nM, respectively.
In the same order, the values of `[2H]C([2H])([2H])NC(=O)c1cc(F)cc([C@@H](C)n2cnc3cc(-c4cn[nH]c4C(F)(F)F)ccc3c2=O)c1` [Compound 455] are less than 10 nM and 11 to 100 nM.
For `CNC(=O)c1cc([C@@H](C)n2cnc3cc(-c4cn[nH]c4C(F)(F)F)ccc3c2=O)ccc1F` [Compound 456], in that order: 10 to 100 nM and 101 to 500 nM.
Consider `CNC(=O)c1cccc([C@@H](C)n2cnc3cc(-c4cn[nH]c4C(F)F)ccc3c2=O)c1` [Compound 457], for which the IC50 in experiment [1] is less than 10 nM; in experiment [2], 11 to 100 nM.
For the compound `[2H]C([2H])([2H])NC(=O)c1cccc([C@@H](C)n2cnc3cc(-c4cn[nH]c4C(F)F)ccc3c2=O)c1` [Compound 458], the concentration for half-maximal inhibition (IC50) in experiment [1] is less than 10 nM; in experiment [2], 11 to 100 nM.
With `C[C@H](c1cccc(C(=O)NCCO)c1)n1cnc2cc(-c3cn[nH]c3C(F)F)ccc2c1=O` [Compound 459], the IC50 in experiment [1] lay in the range of 10 to 100 nM; in experiment [2], 101 to 500 nM.
In the same order, the values of `C[C@H](c1cccc(C(=O)NCCN(C)C)c1)n1cnc2cc(-c3cn[nH]c3C(F)F)ccc2c1=O` [Compound 460] are less than 10 nM and less than 10 nM.
For `C[C@H](c1cccc(C(=O)NCC2CCN(C)CC2)c1)n1cnc2cc(-c3cn[nH]c3C(F)F)ccc2c1=O` [Compound 461], the IC50 in experiment [1] and in experiment [2] was less than 10 nM in each case.
Regarding `C[C@H](c1cccc(C(=O)NCC2CCOCC2)c1)n1cnc2cc(-c3cn[nH]c3C(F)F)ccc2c1=O` [Compound 462], the IC50 was less than 10 nM in experiment [1] and 11 to 100 nM in experiment [2].
On to `CNC(=O)c1cc(F)cc([C@@H](C)n2cnc3cc(-c4cn[nH]c4C(F)F)ccc3c2=O)c1` [Compound 463], for which the IC50 in experiment [1] is less than 10 nM; in experiment [2] it was 11 to 100 nM.
In the same order, the values of `C[C@H](c1cccc(C(=O)NC2CCN(C)CC2)c1)n1cnc2cc(-c3cn[nH]c3Cl)ccc2c1=O` [Compound 464] are less than 10 nM and less than 10 nM.
For `C[C@H](c1cccc(C(=O)NCC2CCN(C)CC2)c1)n1cnc2cc(-c3cn[nH]c3Cl)ccc2c1=O` [Compound 465], in that order: less than 10 nM and less than 10 nM.
In the same order, the values of `[2H]C([2H])([2H])NC(=O)c1cccc([C@@H](C)n2cnc3cc(-c4cn[nH]c4Cl)ccc3c2=O)c1` [Compound 467] are less than 10 nM and 11 to 100 nM.
In the case of `CNC(=O)c1cccc([C@H](C)n2cnc3cc(-c4cn[nH]c4Cl)ccc3c2=O)c1` [Compound 468], the IC50 in experiment [1] was 10 to 100 nM; in experiment [2] it was 101 to 500 nM.
In the same order, the values of `Cc1nocc1-c1ccc2c(=O)n([C@H](C)c3cccc(C(=O)N(C)C)c3)cnc2c1` [Compound 470] are more than 500 nM and more than 501 nM.
For `[2H]C([2H])([2H])NC(=O)c1cccc([C@@H](C)n2cnc3cc(-c4conc4C)ccc3c2=O)c1` [Compound 471], in that order: less than 10 nM and 11 to 100 nM.
For `Cc1nocc1-c1ccc2c(=O)n([C@H](C)c3cccc(C(=O)NCC4CCN(C)CC4)c3)cnc2c1` [Compound 472], in that order: less than 10 nM and less than 10 nM.
As to `Cc1nocc1-c1ccc2c(=O)n([C@H](C)c3cccc(C(=O)NCC4CCNCC4)c3)cnc2c1` [Compound 473], the IC50 in experiment [1] and in experiment [2] was less than 10 nM in each case.

The values above are taken from patent US12064426B2, “Selective inhibitors of ROCK1 and ROCK2 protein kinases and uses thereof” (GENOSCO Inc., priority 2021, dated 2024).
